According to patent publication US20030007998A1, “Unsaturated lipid-enriched feedstock for ruminants” (priority 2001, published 2003):

Tests used:
rumen fluid = conditions: in vitro, J. Dairy Sci., 78, 2797 (1995); cited from earlier work
Holstein cows [1] = assay: Dairy cattle feeding trial, dietary monensin in linseed oil diets; type: in vivo
Method: (§1) Eight Holstein cows are selected and equipped with rumen and duodenal cannulae. All cows are housed in individual tie stalls and are commencing the trial at 45 days in lactation.
(§2) The eight cows are employed in two four-by-four Latin Square designs. Each square has four cows with four treatments imposed. The four treatments are 0, 10, 40 and 70 mg/kg DM of dietary monensin. Each square has a different source of dietary fatty acids. In the first square, dietary fat is supplied by linseed oil, which has a high proportion of fatty acid linolenate. The second square has the dietary fat supplied by MEGALAC, which is a calcium salt of palm oil fatty acids having a high proportion of fatty acid oleate.
(§3) Cows are fed identical diets in both squares except for source of fatty acids, and are formulated for high production. Nutrient composition is formulated for all diets at 17% crude protein with 65% as rumen undegradable protein, 26% Neutral Detergent Fiber, 1.7 Mcal/kg net energy. All diets contain 4% added fat on a dry matter basis from MEGALAC or linseed oil. A daily dry matter intake of 25 kg/cow is calculated to deliver approximately 1 kg of linseed oil or MEGALAC per cow per day. Remaining dietary ingredients are low in fat, and include alfalfa haylage, corn silage, corn, barley, soybean meal, blood meal, Smartamine-M (rumen bypass methionine), sodium bicarbonate and vitamin-mineral premix. All diets are offered as Total Mixed Rations twice daily in quantities to assure at least 10% refusal per day of the amount offered.
(§4) Cows are fed their assigned diets for two weeks, with week one as an adaptation and week two as the experimental feeding period. Sampling is on the last 3 days of this second week. All cows are then moved onto a different diet in such a manner that by the end of the trial all cows have received all diets within each Latin Square.
(§5) During the second week of each period daily, dry matter intake and milk production are recorded. Total mixed rations are sampled daily and composited weekly. These are analyzed for crude protein, NDF and total fat. During the last 3 days of the second week individual proportional milk samples are taken and separated into two subsamples. One subsample is used to assay for total fat content and true protein, and the second is frozen for subsequent analysis of fatty acid profile in the milk.
(§6) During the last 3 days of the second week, rate of passage from the rumen is estimated using dye marker techniques. The liquid and solids markers are placed into the rumen daily beginning on day 7 of the adaptation period, with duodonal samples taken on the last 3 days of the experimental period. Duodenal samples are stored frozen for later analysis of total fat, fatty acid profile and marker. Concurrent rumen samples are taken. Liquid turnover rate is estimated from the dilution of dye in the liquid portion of rumen samples. Rumen contents are assayed for total fat, fatty acid profile and marker. Each Latin square is analyzed separately.

Holstein cows [2] = assay: Dairy cattle feeding trial, dietary monensin in MEGALAC diet; type: in vivo
Method: as §1, §2, §3, §4, §5, §6

Hereford steers [3] = assay: Beef cattle feeding trial, dietary monensin in linseed oil diet; type: in vivo
Method: (§7) Eight Hereford steers are selected and equipped with rumen and duodenal cannulae. All steers are housed in individual tie stalls. The duration of the trial is the last 90 days of the finishing period.
as §2, with “steers” for “cows”, “used” for “employed”, “mg” for “mg/kg DM”
(§8) Steers are fed identical diets in both squares except for source of fatty acids, and the diets are formulated for high rate of body weight gain (1 kg/day). All diets are calculated to deliver 0.75 kg/steer/day of added dietary linseed oil or MEGALAC. Remaining dietary ingredients are low in fat, and include corn silage, corn, barley, soybean meal, bloodmeal, Smartamine-M (rumen bypass methionine), sodium bicarbonate and vitamin-mineral premix. All diets are offered as Total Mixed Rations twice daily in quantities to assure at least 10% refusal per day of the amount offered.
as §4, with “Steers” for “Cows”, “steers” for “cows”
(§9) During the second week of each period daily dry matter intakes are recorded. Total mixed rations are sampled daily and composited weekly. These are analyzed for crude protein, NDF and total fat. During the last 3 days of the second week individual body weights are recorded.
as §6, with “week” for “week,”, “duodenal” for “duodonal”

Hereford steers [4] = assay: Beef cattle feeding trial, dietary monensin in MEGALAC diet; type: in vivo
Method: as §7
as §2, with “steers” for “cows”, “used” for “employed”, “mg” for “mg/kg DM”
as §8
as §4, with “Steers” for “Cows”, “steers” for “cows”
as §9
as §6, with “week” for “week,”, “duodenal” for “duodonal”

[5] = 40 mg monensin, P<0.05, linseed oil diet
[6] = 70 mg monensin, P<0.05, linseed oil diet
[7] = 40 mg monensin, P<0.05, MEGALAC diet
[8] = 70 mg monensin, P<0.05, MEGALAC diet
[9] = 10 and 40 mg monensin, P<0.05, steers

For CC1(C)S[C@@H]2[C@H](NC(=O)[C@H](N)c3ccc(O)cc3)C(=O)N2[C@H]1C(=O)O [amoxicillin], the “Antimicrobial inhibition of lipolysis and lipid biohydrogenation of soybean oil” value (rumen fluid) is listed as “most potent inhibitors”.

With CC[C@@]1([C@@H]2O[C@@H]([C@H]3O[C@@](O)(CO)[C@H](C)C[C@@H]3C)C[C@@H]2C)CC[C@H]([C@]2(C)CC[C@]3(C[C@H](O)[C@@H](C)[C@@H]([C@@H](C)[C@@H](OC)[C@H](C)C(=O)O)O3)O2)O1 [monensin] the DMI (Holstein cows [1]; 0 to 70 mg monensin addition, linseed oil diet, dairy cows) was “no effect”, the “Milk linolenate increase vs. 0 mg supplementation” value (Holstein cows [1]; 10 mg monensin, P<0.05, linseed oil diet) was 25% and the “Rumen rate of passage” value (Holstein cows [1]; 10 mg monensin, P<0.1, linseed oil diet) was “tends to increase”. For the same molecule, the Milk production improvement (Holstein cows [1]; 10 mg monensin, tends (P<0.1), linseed oil diet) was 3 lbs. per day, the “Milk linolenate increase vs. 0 mg supplementation” value (Holstein cows [1]; [5]) was 28% and the Milk production improvement (Holstein cows [1]; [5]) was 3.5 lb/day. The Milk production (Holstein cows [1]; 70 mg monensin vs 40 mg, linseed oil diet) was “no further improvement”, the “Milk fat percentage reduction” value (Holstein cows [1]; [6]) was 0.3 percentage points and the “Milk linolenate increase vs. 0 mg supplementation” value (Holstein cows [1]; [6]) was 37%. The “Rumen liquid turnover rate increase” value (Holstein cows [1]; 70 mg monensin, P<0.1, linseed oil diet) was 5%, the Bypass linolenic acid (Holstein cows [1]; 70 mg monensin, linseed oil diet) was “about 30%” and the “Increase of linolenic acid in duodenal contents” value (Holstein cows [1]; 10 and 40 mg monensin, P<0.05, linseed oil diet) was 20 percentage points. For the same molecule, the “Estimated rumen bypass rate for linolenic acid” value (Holstein cows [1]; 10 and 40 mg monensin, linseed oil diet (0 mg: 8%)) was 28%, the “Rumen rate of passage increase” value (Holstein cows [1]; 40 and 70 mg monensin, linseed oil diet) was 6% and the “Rumen liquid turnover rate” value (Holstein cows [1]; between 0, 10 and 40 mg monensin, linseed oil diet) was “not different”. The Milk protein percentages (Holstein cows [1]; diets with different concentrations of monensin, linseed oil diet) was “not different”, the Milk fat percentage (Holstein cows [1]; lower inclusion rates of monensin, linseed oil diet) was “only a tendency for a reduction” and the DMI (Holstein cows [2]; 0 to 70 mg monensin addition, MEGALAC diet, dairy cows) was “no effect”. For the same molecule, the “Milk oleate increase vs. 0 mg supplementation” value (Holstein cows [2]; 10 mg monensin, P<0.05, MEGALAC diet) was 22%, the “Rumen rate of passage” value (Holstein cows [2]; 10 mg monensin, P<0.1, MEGALAC diet) was “tends to increase” and the Milk production improvement (Holstein cows [2]; 10 mg monensin, tends (P<0.1), MEGALAC diet) was 2.8 lbs. per day. For the same molecule, the “Milk oleate increase vs. 0 mg supplementation” value (Holstein cows [2]; [7]) was 31%, the Milk production improvement (Holstein cows [2]; [7]) was 3.9 lb/day and the Milk production (Holstein cows [2]; 70 mg monensin vs 40 mg, MEGALAC diet) was “no further improvement”. For the same molecule, the Bypass linolenic acid (Holstein cows [2]; 70 mg monensin, MEGALAC diet) was “about 33%”, the “Milk fat percentage reduction” value (Holstein cows [2]; [8]) was 0.25 percentage points and the “Milk oleate increase vs. 0 mg supplementation” value (Holstein cows [2]; [8]) was 39%. The “Rumen liquid turnover rate increase” value (Holstein cows [2]; 70 mg monensin, P<0.1, MEGALAC diet) was 6%, the “Estimated rumen bypass rate for oleic acid” value (Holstein cows [2]; 10 and 40 mg monensin, MEGALAC diet (0 mg: 56%)) was 74% and the “Increase of oleic acid in duodenal contents” value (Holstein cows [2]; 10 and 40 mg monensin, P<0.05, MEGALAC diet) was 18 percentage points. The “Rumen rate of passage increase” value (Holstein cows [2]; 40 and 70 mg monensin, MEGALAC diet) was 6.4%, the “Rumen liquid turnover rate” value (Holstein cows [2]; between 0, 10 and 40 mg monensin, MEGALAC diet) was “not different” and the Milk protein percentages (Holstein cows [2]; diets with different concentrations of monensin, MEGALAC diet) was “not different”. The Milk fat percentage (Holstein cows [2]; lower inclusion rates of monensin, MEGALAC diet) was “only a tendency for a reduction”, the “Rumen rate of passage” value (Hereford steers [3]; 10 mg monensin, P<0.1, steers) was “tends to increase” and the DMI (Hereford steers [3]; 10 mg monensin, steers) was “no significant effect”. The “Rumen liquid turnover rate increase” value (Hereford steers [3]; 70 mg monensin, P<0.1, steers) was 5%, the Bypass linolenic acid (Hereford steers [3]; 70 mg monensin, steers) was “about 29%” and the “Increase of linolenic acid in duodenal contents” value (Hereford steers [3]; [9]) was 24 percentage points. For the same molecule, the “Rumen bypass rate for linolenic acid” value (Hereford steers [3]; 10 and 40 mg monensin, steers (0 mg: about 10%)) was 34%, the DMI reduction (Hereford steers [3]; 40 and 70 mg monensin diets, steers) was 5% and the “Rumen rate of passage increase” value (Hereford steers [3]; 40 and 70 mg monensin, steers) was 6%. For the same molecule, the “Rumen liquid turnover rate” value (Hereford steers [3]; between 0, 40 and 70 mg monensin, steers) was “not different”, the DMI (Hereford steers [4]; 10 mg monensin addition, steers) was “no effect” and the “Rumen rate of passage” value (Hereford steers [4]; 10 mg monensin, P<0.1, steers) was “tends to increase”. The “Rumen liquid turnover rate increase” value (Hereford steers [4]; 70 mg monensin, P<0.1, steers) was 4%, the Bypass linolenic acid (Hereford steers [4]; 70 mg monensin, steers) was “about 39%” and the “Increase of oleic acid in duodenal contents” value (Hereford steers [4]; [9]) was 22 percentage points. The “Estimated rumen bypass rate for oleic acid” value (Hereford steers [4]; 10 and 40 mg monensin, steers (0 mg: 66%)) was 88%, the “DMI reduction compared to controls” value (Hereford steers [4]; 40 and 70 mg monensin, steers) was 8% and the “Rumen rate of passage increase” value (Hereford steers [4]; 40 and 70 mg monensin, steers) was 5.4%. The “Rumen liquid turnover rate” value (Hereford steers [4]; between 0, 10 and 40 mg monensin, steers) was “not different”.
